According to patent publication US10646460B2, “Pharmaceutical composition for inhibiting growth of cancer stem cells, containing aldehyde inhibitor and biguanide-based compound” (NATIONAL CANCER CENTER, priority 2015, dated 2020):

Columns and labels:
U87 neurosphere cells = experiment: Analysis of formation of neurospheres; assay type: cell-based; details: 1 μM gossypol, 10 μM phenformin or mixture, 3 weeks, FIG. 3
Method: U87 cells were cultured in DMEM/F-12 medium containing 2 wt % 1×B27, 0.02 wt % bFGF (20 ng/ml), 0.02 wt % EGF (20 ng/ml) and 50 U/ml penicillin-[…] (100×, Gibco, Invitrogen Korea, Seoul, South Korea) to form tumor spheres. Next, the cells were seeded onto a 96-well plate at a density of 10 cells/well and treated with each of 1 μM gossypol, 10 μM phenformin and a mixture of 1 μM gossypol and 10 μM phenformin. Then, the cells were cultured at 37° C. for 3 weeks.
In FIG. 4, the percent change in the radius of the neurospheres is expressed as the percentage of the average radius of the neurospheres after each treatment relative to the average radius of the neurospheres seeded onto the 96-well plate, and in FIG. 5, the degree of neurosphere formation is expressed as the percentage of the number of the neurosphere cells after each treatment relative to the number of the neurosphere cells seeded onto the 96-well plate.

U87-luc cells = experiment: Orthotopic xenograft model (U87-luc cells transplanted into the cerebrum), bioluminescence and survival; assay type: in vivo, male athymic nude mice; details: 5 weeks after transplantation; oral gossypol 40 mg/kg and/or phenformin 100 mg/kg each day, FIG. 7
Method: Gossypol and phenformin to be used in an animal study were dissolved in DMSO and PBS, respectively. A composition for co-administration of gossypol and phenformin was dissolved in PBS containing 10 wt % DMSO and 10 wt % cremophor.
For preparation of orthotopic xenograft models, 4-8-week-old male athymic nude mice (Central Lab., Korea) were used. For stabilization, the mice were maintained in a sterilized environment for at least one week before use in the experiment while they were fed with a sufficient diet. […] First, the mice were anesthetized by intraperitoneal injection of 30 mg/kg of Zoletil and 10 mg/kg of Xylazine, and 2×10^5 U87-luc cells were transplanted into the right frontal lobe of the cerebrum to a depth of 4.5 mm by use of a Hamilton syringe. The U87-luci cells were injected into five mice of the same group at the same time at a rate of 0.5 l/minute by use of a micro-infusion syringe pump. Thereafter, the mice were administered orally with gossypol (40 mg/kg) and/or phenformin (100 mg/kg) each day.
An increase or decrease in the body weight was checked each day, and when a mouse whose body weight decreased by 15 wt % compared to the body weight before the start of the experiment, the mouse was euthanized according to the approved protocol. […]

U87 cells (GBM cells) = experiment: MTT assay of cell viability following treatment with gossypol; assay type: cell-based; details: 0.5, 1, 5, 10 and 50 μM gossypol, 72 hours, FIG. 1
Method: U87 cells (GBM cells) were treated with 0.5, 1, 5, 10 and 50 μM of gossypol for 72 hours (FIG. 1).

| SMILES | size of neurosphere cells / presence in cell photographs (U87 neurosphere cells) | degree of occurrence of brain cancer (bioluminescence signal) (U87-luc cells) | growth of the cells (MTT assay) (U87 cells (GBM cells)) |
| --- | --- | --- | --- |
| NC(N)=N/C(N)=N/CCc1ccccc1 [phenformin] | the size of the neurosphere cells decreased | fluorescence was observed |  |
| Cc1cc2c(C(C)C)c(O)c(O)c(C=O)c2c(O)c1-c1c(C)cc2c(C(C)C)c(O)c(O)c(C=O)c2c1O [gossypol] | the size of the neurosphere cells decreased | fluorescence was observed | growth of the cells was inhibited |
